{
  "source": "patent EP0097202A1",
  "about": "“Hydrazinopyridazine compound, process for production thereof, and use thereof as medicament” (TEIKOKU HORMONE MFG. CO., LTD., priority 1982, dated 1984)",
  "type_in_all_cases": "in vivo, male Wistar rats",
  "key": {"[1]": {"test": "vasodilating activity (hypotensive activity): maximum fall in blood pressure in anesthetized rats", "details": "maximum fall in blood pressure during 40 minutes after 1 mg/kg i.v., three animals", "description": "(§1) Experiments were done using male Wistar rats weighing between 300 and 400 g, anesthetized with sodium pentobarbital (60 mg/kg i.p.). The blood pressure was directly measured by connecting a cannula inserted in the femoral artery to a pressure transducer and the heart rate was calculated from the pulse waves of the blood pressure tracings. Each value shown here was obtained from three animals. The test compounds were individually dissolved in physiological saline solution or a 0.01 N aqueous solution of hydrochloric acid.\nEach test compound dissolved in physiological saline solution or 0.01 N hydrochloric acid was intravenously injected into rats in a fixed dose of 1 mg/kg and the blood pressure was continuously monitored for 40 minutes. The maximum fall in blood pressure during this period was determined and taken as the hypotensive activity of each compound."}, "[2]": {"target": "T1, β1-adrenoceptors (Rattus norvegicus, UniProt P18090)", "T1 construct": "Experiments were done using male Wistar rats weighing between 300 and 400 g, anesthetized with sodium pentobarbital; from tissue; host or cells: whole animal (anesthetized male Wistar rats), cardiac response in vivo", "T1 sequence (P18090 whole entry)": "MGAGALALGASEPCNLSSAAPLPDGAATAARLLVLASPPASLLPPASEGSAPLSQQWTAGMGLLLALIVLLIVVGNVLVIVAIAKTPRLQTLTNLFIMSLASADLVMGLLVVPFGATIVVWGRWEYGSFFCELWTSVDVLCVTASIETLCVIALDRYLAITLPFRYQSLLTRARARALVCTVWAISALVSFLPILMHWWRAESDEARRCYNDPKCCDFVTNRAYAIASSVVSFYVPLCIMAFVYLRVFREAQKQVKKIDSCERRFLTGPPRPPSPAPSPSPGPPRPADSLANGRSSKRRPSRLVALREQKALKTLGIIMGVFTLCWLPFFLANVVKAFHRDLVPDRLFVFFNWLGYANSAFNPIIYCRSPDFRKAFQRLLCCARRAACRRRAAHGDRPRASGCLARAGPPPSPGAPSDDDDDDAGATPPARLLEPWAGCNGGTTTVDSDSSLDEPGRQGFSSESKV", "test": "β-adrenoceptor blocking activity: inhibition of the isoproterenol-induced increase in heart rate in anesthetized rats", "details": "iv, 0.05 h", "description": "as §1\nThe increased heart rate before injection of the test compound was represented by H1. Three minutes after i.v. injection of the test compound, isoproterenol (0.1 µg/kg i.v.) was again administered and then the change in heart rate was measured. The maximum increase in heart rate after injection of the test compound was designated as H2. From these values, the percent inhibition of the change in heart rate was calculated in accordance with the following equation.\nPercent inhibition of the heart rate [formula]\n(§2) By repeating the procedure mentioned above at various doses of the test compounds, dose-response curves were prepared."}, "[3]": {"test_system": "β2-adrenoceptor", "test": "β-adrenoceptor blocking activity: inhibition of the isoproterenol-induced fall in blood pressure in anesthetized rats", "details": "50 % inhibition of fall in blood pressure by isoproterenol 0.1 µg/kg i.v.", "description": "as §1, §2"}, "[4]": {"details": "read-out: β-adrenoceptor blocking action ID50"}},
  "note": "Like-named read-outs stand apart in the source and are kept apart here.",
  "data": [
    {"compound": "CC(C)(COc1ccc(NN)nn1)NCC(O)COc1ccccc1", "note": "(stereo not shown) [A, 1-penoxy-3-[1,1-dimethyl-2-(3-hydrozino-6-pyridazinyloxy)ethylamino]-2-propanol]", "values": [
      {"measurement": "Hypotensive action", "setting": "[1]", "result": "++ (a fall in blood pressure of 25 to 34 mmHg)"},
      {"measurement": "ED50", "setting": "[2]; [4]", "result": 0.04, "unit": "mg/kg"}
    ]},
    {"compound": "CC(C)NCC(O)COc1ccc(CC(N)=O)cc1", "note": "(stereo not shown) [Atenolol, reference compound]", "values": [
      {"measurement": "ED50", "setting": "[2]; read-out: β-adrenoceptor blocking action ID50 β1", "result": 0.05, "unit": "mg/kg"},
      {"measurement": "β-adrenoceptor blocking action ID50 β2", "setting": "[3]", "result": 1.5, "unit": "mg/kg i.v."}
    ]},
    {"compound": "CC(C)(COc1ccc(NN)nn1)NCC(O)COc1ccccc1Cl", "note": "(stereo not shown) [B, 1-(2-chlorophenoxy)-3-[1,1-dimethyl-2-(3-hydrozino-6-pyridazinyloxy)ethylamino]-2-propanol]", "values": [
      {"measurement": "Hypotensive action", "setting": "[1]", "result": "+++ (35 mmHg or more)"},
      {"measurement": "ED50", "setting": "[2]; [4]", "result": 0.008, "unit": "mg/kg"},
      {"measurement": "β-adrenoceptor blocking action ID50 β2", "setting": "[3]", "result": 0.23, "unit": "mg/kg i.v."}
    ]},
    {"compound": "Cc1ccccc1OCC(O)CNC(C)(C)COc1ccc(NN)nn1", "note": "(stereo not shown) [C, 1-(2-methylphenoxy)-3-[1,1-dimethyl-2-(3-hydrazino-6-pyridazinyloxy)ethylamino]-2-propanol]", "values": [
      {"measurement": "Hypotensive action", "setting": "[1]", "result": "+++ (35 mmHg or more)"},
      {"measurement": "ED50", "setting": "[2]; [4]", "result": 0.015, "unit": "mg/kg"},
      {"measurement": "β-adrenoceptor blocking action ID50 β2", "setting": "[3]", "result": 0.45, "unit": "mg/kg i.v."}
    ]},
    {"compound": "CCc1ccccc1OCC(O)CNC(C)(C)COc1ccc(NN)nn1", "note": "(stereo not shown) [D, 1-(2-ethylphenoxy)-3-[1,1-dimethyl-2-(3-hydrazino-6-pyridazinyloxy)ethylamino]-2-propanol]", "values": [
      {"measurement": "Hypotensive action", "setting": "[1]", "result": "+++ (35 mmHg or more)"},
      {"measurement": "ED50", "setting": "[2]; [4]", "result": 0.2, "unit": "mg/kg"}
    ]},
    {"compound": "CCCc1ccccc1OCC(O)CNC(C)(C)COc1ccc(NN)nn1", "note": "(stereo not shown) [E, 1-(2-propylphenoxy)-3-[1,1-dimethyl-2-(3-hydrazino-6-pyridazinyloxy)ethylamino]-2-propanol]", "values": [
      {"measurement": "Hypotensive action", "setting": "[1]", "result": "++ (a fall in blood pressure of 25 to 34 mmHg)"},
      {"measurement": "ED50", "setting": "[2]; [4]", "result": 0.2, "unit": "mg/kg"}
    ]},
    {"compound": "Cc1cccc(OCC(O)CNC(C)(C)COc2ccc(NN)nn2)c1Cl", "note": "(stereo not shown) [F, 1-(2-chloro-3-methylphenoxy)-3-[1,1-dimethyl-2-(3-hydrazino-6-pyridazinyloxy)ethylamino]-2-propanol]", "values": [
      {"measurement": "Hypotensive action", "setting": "[1]", "result": "++ (a fall in blood pressure of 25 to 34 mmHg)"},
      {"measurement": "ED50", "setting": "[2]; [4]", "result": 0.08, "unit": "mg/kg"}
    ]},
    {"compound": "CC(C)=NNc1ccc(OCC(C)(C)NCC(O)COc2cc(C)ccc2Cl)nn1", "note": "(stereo not shown) [G, 1-(2-chloro-5-methylphenoxy)-3-[1,1-dimethyl-2-(3-isopropylidenehydrazino-6-pyridazinyloxy)ethylamino]-2-propanol]", "values": [
      {"measurement": "Hypotensive action", "setting": "[1]", "result": "++ (a fall in blood pressure of 25 to 34 mmHg)"},
      {"measurement": "ED50", "setting": "[2]; [4]", "result": 0.15, "unit": "mg/kg"}
    ]},
    {"compound": "Cc1ccc(Cl)c(OCC(O)CNC(C)(C)COc2ccc(NN)nn2)c1", "note": "(stereo not shown) [H, 1-(2-chloro-5-methylphenoxy)-3-[1,1-dimethyl-2-(3-hydrazino-6-pyridazinyloxy)ethylamino]-2-propanol]", "values": [
      {"measurement": "Hypotensive action", "setting": "[1]", "result": "++ (a fall in blood pressure of 25 to 34 mmHg)"},
      {"measurement": "ED50", "setting": "[2]; [4]", "result": 0.15, "unit": "mg/kg"}
    ]},
    {"compound": "CC(C)(COc1ccc(NN)nn1)NCC(O)COc1ccccc1C#N", "note": "(stereo not shown) [I, 1-(2-cyanophenoxy)-3-[1,1-dimethyl-2-(3-hydrazino-6-pyridazinyloxy)ethylamino]-2-propanol]", "values": [
      {"measurement": "Hypotensive action", "setting": "[1]", "result": "+++ (35 mmHg or more)"},
      {"measurement": "ED50", "setting": "[2]; [4]", "result": 0.02, "unit": "mg/kg"},
      {"measurement": "β-adrenoceptor blocking action ID50 β2", "setting": "[3]", "result": 0.1, "unit": "mg/kg i.v."}
    ]},
    {"compound": "CC(C)(COc1ccc(NN)nn1)NCC(O)COc1cc(Cl)ccc1C#N", "note": "(stereo not shown) [J, 1-(2-cyano-5-chlorophenoxy)-3-[1,1-dimethyl-2-(3-hydrazino-6-pyridazinyloxy)ethylamino]-2-propanol]", "values": [
      {"measurement": "Hypotensive action", "setting": "[1]", "result": "++ (a fall in blood pressure of 25 to 34 mmHg)"},
      {"measurement": "ED50", "setting": "[2]; [4]", "result": 0.12, "unit": "mg/kg"}
    ]},
    {"compound": "Cc1ccc(C#N)c(OCC(O)CNC(C)(C)COc2ccc(NN)nn2)c1", "note": "(stereo not shown) [K, 1-(2-cyano-5-methylphenoxy)-3-[1,1-dimethyl-2-(3-hydrazino-6-pyridazinyloxy)ethylamino]-2-propanol]", "values": [
      {"measurement": "Hypotensive action", "setting": "[1]", "result": "+++ (35 mmHg or more)"},
      {"measurement": "ED50", "setting": "[2]; [4]", "result": 0.05, "unit": "mg/kg"},
      {"measurement": "β-adrenoceptor blocking action ID50 β2", "setting": "[3]", "result": 0.1, "unit": "mg/kg i.v."}
    ]},
    {"compound": "COCc1ccccc1OCC(O)CNC(C)(C)COc1ccc(NN)nn1", "note": "(stereo not shown) [L, 1-(2-methoxymethylphenoxy)-3-[1,1-dimethyl-2-(3-hydrazino-6-pyridazinyloxy)ethylamino]-2-propanol]", "values": [
      {"measurement": "Hypotensive action", "setting": "[1]", "result": "+++ (35 mmHg or more)"},
      {"measurement": "ED50", "setting": "[2]; [4]", "result": 0.03, "unit": "mg/kg"}
    ]},
    {"compound": "CCOCc1ccccc1OCC(O)CNC(C)(C)COc1ccc(NN)nn1", "note": "(stereo not shown) [M, 1-(2-ethoxymethylphenoxy)-3-[1;1-dimethyl-2-(3-hydrazino-6-pyridazinyloxy)ethylamino]-2-propanol]", "values": [
      {"measurement": "Hypotensive action", "setting": "[1]", "result": "++ (a fall in blood pressure of 25 to 34 mmHg)"},
      {"measurement": "ED50", "setting": "[2]; [4]", "result": 0.06, "unit": "mg/kg"}
    ]},
    {"compound": "COCCc1ccccc1OCC(O)CNC(C)(C)COc1ccc(NN)nn1", "note": "(stereo not shown) [N, 1-[2-(2-methoxyethyl)phenoxy]-3-[1,1-dimethyl-2-(3-hydrazino-6-pyridazinyloxy)ethylamino]-2-propanol]", "values": [
      {"measurement": "Hypotensive action", "setting": "[1]", "result": "+++ (35 mmHg or more)"},
      {"measurement": "ED50", "setting": "[2]; [4]", "result": 0.08, "unit": "mg/kg"}
    ]},
    {"compound": "CCOCCc1ccccc1OCC(O)CNC(C)(C)COc1ccc(NN)nn1", "note": "(stereo not shown) [O]", "values": [
      {"measurement": "Hypotensive action", "setting": "[1]", "result": "++ (a fall in blood pressure of 25 to 34 mmHg)"},
      {"measurement": "ED50", "setting": "[2]; [4]", "result": 0.16, "unit": "mg/kg"}
    ]},
    {"compound": "C=CCOc1ccccc1OCC(O)CNC(C)(C)COc1ccc(NN)nn1", "note": "(stereo not shown) [P, 1-(2-allyloxyphenoxy)-3-[1,1-dimethyl-2-(3-hydrazino-6-pyridazinyloxy)ethylamino]-2-propanol]", "values": [
      {"measurement": "Hypotensive action", "setting": "[1]", "result": "++ (a fall in blood pressure of 25 to 34 mmHg)"},
      {"measurement": "ED50", "setting": "[2]; [4]", "result": 0.1, "unit": "mg/kg"}
    ]},
    {"compound": "Cc1ccccc1OCC(O)CNC(C)(C)CSc1ccc(NN)nn1", "note": "(stereo not shown) [Q, 1-(2-methylphenoxy)-3-[1,1-dimethyl-2-(3-hydrazino-6-pyridazinylthio)ethylamino]-2-propanol]", "values": [
      {"measurement": "Hypotensive action", "setting": "[1]", "result": "++ (a fall in blood pressure of 25 to 34 mmHg)"},
      {"measurement": "ED50", "setting": "[2]; [4]", "result": 0.04, "unit": "mg/kg"}
    ]},
    {"compound": "C#Cc1ccccc1OCC(O)CNC(C)(C)COc1ccc(NN)nn1", "note": "(stereo not shown) [R, 1-(2-ethinylphenoxy)-3-[1,1-dimethyl-2-(3-hydrazino-6-pyridazinyloxy)ethylamino]-2-propanol]", "values": [
      {"measurement": "Hypotensive action", "setting": "[1]", "result": "+++ (35 mmHg or more)"},
      {"measurement": "ED50", "setting": "[2]; [4]", "result": 0.02, "unit": "mg/kg"},
      {"measurement": "β-adrenoceptor blocking action ID50 β2", "setting": "[3]", "result": "No antagonistic action at 0.1"}
    ]}
  ]
}
